This is an account of results in ChEMBL document CHEMBL6121067, “Mitophagy in Neurodegenerative Diseases: Mechanisms of Action and the Advances of Drug Discovery” (J Med Chem, 2025).

One may read the IC50 as the concentration that gives 50% inhibition. A lower IC50 goes with inhibition by little substance. A word on the EC50: it is the midpoint of the concentration-response curve. One may read the solubility as the concentration that dissolves in the medium under given conditions. A lower solubility goes with little dissolved substance.

The target in data set [1] is T1, Ubiquitin carboxyl-terminal hydrolase 30 (Homo sapiens, UniProt Q70CQ3).
T1 sequence (Q70CQ3 whole entry): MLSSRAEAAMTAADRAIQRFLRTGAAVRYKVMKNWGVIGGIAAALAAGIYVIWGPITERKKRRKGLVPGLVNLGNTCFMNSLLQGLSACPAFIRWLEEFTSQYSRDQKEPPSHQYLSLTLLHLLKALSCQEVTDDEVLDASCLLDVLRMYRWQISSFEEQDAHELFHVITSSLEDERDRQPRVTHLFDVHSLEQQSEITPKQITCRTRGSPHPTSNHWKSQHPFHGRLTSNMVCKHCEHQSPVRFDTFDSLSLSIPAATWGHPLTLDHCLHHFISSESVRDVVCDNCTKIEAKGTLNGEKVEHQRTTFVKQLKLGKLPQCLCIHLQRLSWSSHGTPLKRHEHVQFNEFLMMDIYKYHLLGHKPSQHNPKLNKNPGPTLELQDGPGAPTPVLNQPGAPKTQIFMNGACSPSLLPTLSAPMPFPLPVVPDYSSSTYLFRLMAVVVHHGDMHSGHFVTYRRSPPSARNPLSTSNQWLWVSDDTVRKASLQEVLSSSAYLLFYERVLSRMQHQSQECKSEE
Put plainly: Inhibition of USP30 (unknown origin).

Data set [2] has as its target Serine/threonine-protein kinase PINK1, mitochondrial (Homo sapiens, UniProt Q9BXM7). In words: Activation of full length recombinant PINK1 (unknown origin) extracted from Escherichia coli BL21 (DE3) by UV absorbance based analysis.
The nature of data set [3]: Solubility of compound at pH 6.8 incubated for 4 hrs by HPLC or LC-MS/MS analysis. The format is physicochemical. To be noted: buffer.

Structures are written as SMILES. In brackets after ≈: the same amount, converted by molar mass.

Serine/threonine-protein kinase PINK1, mitochondrial, sequence (Q9BXM7 whole entry): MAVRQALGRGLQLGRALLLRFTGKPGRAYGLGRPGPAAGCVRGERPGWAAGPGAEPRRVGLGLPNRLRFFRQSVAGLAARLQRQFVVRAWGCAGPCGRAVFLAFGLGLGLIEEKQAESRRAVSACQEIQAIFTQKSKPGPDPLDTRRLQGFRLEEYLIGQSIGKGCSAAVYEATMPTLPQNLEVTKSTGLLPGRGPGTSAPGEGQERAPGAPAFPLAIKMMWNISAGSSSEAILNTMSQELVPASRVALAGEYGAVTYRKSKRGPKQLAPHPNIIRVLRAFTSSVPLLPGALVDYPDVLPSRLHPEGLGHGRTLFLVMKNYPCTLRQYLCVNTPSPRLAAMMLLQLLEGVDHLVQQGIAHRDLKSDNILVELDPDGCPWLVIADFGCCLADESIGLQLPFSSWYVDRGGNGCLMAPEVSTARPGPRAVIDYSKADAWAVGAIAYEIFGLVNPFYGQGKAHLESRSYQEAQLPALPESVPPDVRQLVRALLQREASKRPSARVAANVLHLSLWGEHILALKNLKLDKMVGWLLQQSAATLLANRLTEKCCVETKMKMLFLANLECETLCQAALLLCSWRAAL

`COc1cc(C(=O)N[C@@H]2CCN(C#N)C2)ccc1-c1cnn(C)c1` had an IC50 in data set [1] of 15 nM.

In data set [1], `N#CN1CC[C@@H](NC(=O)N2CC(c3ccn(-c4ccccc4)n3)C2)C1` gave an IC50 of 15 nM.

`N#CN1CC[C@H](CNC(=O)c2cc(-c3cccc(Cl)c3)no2)C1` yielded an IC50 in data set [1] of 15 nM.

For the compound `CC(C)[C@H]1Cn2ncc(-c3ccc(C(=O)N4CCCc5ccccc54)cc3)c2CN1C(=O)Cc1ccccc1`, the EC50 in data set [2] was 2900 nM. The compound also came in with a solubility at 4 h in data set [3] of 3.6 µg/mL (≈ 6.94 µM).

Take `C[C@@H](C(=O)N1Cc2c(-c3ccc(C(=O)N4CCCc5ccccc54)cc3)cnn2C[C@@H]1C)c1ccccc1`: the EC50 in data set [2] was found to be 1500 nM. For the same compound, in data set [3], the concentration in solution (solubility at 4 h) was 1.5 µg/mL (≈ 2.97 µM).

In turn, `N#CN1CC[C@@H](NC(=O)c2cc(-c3ccccc3Oc3ccccc3)n[nH]2)C1` had an IC50 in data set [1] of 1.5 nM.

As to `CCn1c(-c2ccc(OCC(=O)O)c(OC)c2)nc(-c2ccccc2)c1-c1ccccc1`, the 50% inhibitory concentration (IC50) in data set [1] was 5120 nM.

Turning to `CO[C@@H](C(=O)N1Cc2c(-c3ccc(C(=O)N4CCCc5ccccc54)cc3)cnn2C[C@@H]1C(C)C)c1ccccc1`, in data set [2], the EC50 turned out to be 40 nM. In data set [3], this compound registered a solubility at 4 h of 3.8 µg/mL (≈ 6.93 µM).

With `CC(=O)N1Cc2c(-c3ccc(C(=O)N4CCCc5ccccc54)cc3)cnn2C[C@@H]1C`, the EC50 in data set [2] was 14500 nM.

With `CO[C@@H](C(=O)N1Cc2c(-c3ccc(C(=O)N4CCCc5ccccc54)cc3)cnn2C[C@@H]1C(C)C)c1cnn(C)c1`, the EC50 in data set [2] was determined as 150 nM. For the same compound, the concentration in solution in data set [3] (solubility at 4 h) came to 65 µg/mL (≈ 118 µM).

Turning to `COc1cc(-c2nc(-c3ccccc3)c(-c3ccccc3)n2C2CC2)ccc1OCC(=O)O`, the IC50 in data set [1] was determined as 8430 nM.
